Data taken from patent publication US20230255910A1, “USE OF A CINNAMEIN COMPOSITION FOR THE TREATMENT OF GLYCINE ENCEPHALOPATHY AND UREA CYCLE DISORDERS” (Rush University Medical Center, priority 2020, published 2023).

Legend:
[1] = system: B6EiC3Sn a/A-Otc^spf-ash/J (Otc^spf-ash) mice; test: Barnes maze, cognitive functions in OTC knockout mice (animal model of urea cycle disorders); format: in vivo; settings: 50 mg/kg body weight/d orally via gavage for 15 days, FIG. 4A-C
Experimental: Eight-week old B6EiC3Sn a/A-Otc^spf-ash/J (Otc^spf-ash) mice were treated with cinnamein (50 mg/kg body weight/d) and cinnamic acid (50 mg/kg body weight/d) orally via gavage for 15 days followed by monitoring cognitive functions by Barnes maze (FIG. 4A, representative track plots summarizing the overall activity of mice on the apparatus recorded with a Noldus camera and visualized by Ethovision XT software; FIG. 4B, errors; FIG. 4C, latency). Results are mean+SEM of three mice per group. ***p<0.001.
Cognitive deficit is common in individuals with inherited urea cycle disorders (UCDs). […] See for example Qureshi et al., “Ornithine Transcarbamylase Deficiency in Mutant Mice I. Studies on the Characterization of Enzyme Defect and Suitability as Animal Model of Human Disease,” (1979) Pediat. Res. 13: pp 807-811; Hodges et al., “The spf^ash mouse: A missense mutation in the ornithine transcarbamylase gene also causes aberrant mRNA splicing,” (1989) Proc. Natl. Acad. Sci. USA 86: pp. 4142-4146. OTC knockout B6EiC3Sn a/A-Otc^spf-ash/J (Otc^spf-ash) mice were obtained from the Jackson Lab. Cinnamein was purchased from Sigma. Cinnamic acid was bought from Spectrum Chemicals.

[2] = Observation of side effects during drug treatment; format: in vivo, C57/BL6 mice; settings: 50 mg/kg body wt/d daily via gavage, during drug treatment (14 d)
Experimental: (§1) C57/BL6 mice (8-10 week-old) received lentiviral GLDC shRNA (1×107 IFU/mouse in 100 μl Hank's Balanced Salt Solution or HBSS) once via tail-vein injection. The group of control mice received only 100 μl HBSS via tail-vein injection. Oral administration of cinnamein occurred from 7 d after lenti-GLDC shRNA injection. Mice were treated with 50 mg/kg body wt/d of cinnamein daily via gavage. Cinnamein (Sigma) was solubilized in 100 μl 0.5% methyl cellulose before gavage. Therefore, one group of lenti-GLDC shRNA-insulted mice were also treated with 100 μl 0.5% methyl cellulose as vehicle control. For comparison, one group of lenti-GLDC shRNA-insulted mice were also treated with 50 mg/kg body wt/d of cinnamic acid daily via gavage.
(§2) On 14 d of treatment, mice were sacrificed, and level of glycine was measured in serum and brain.

[3] = system: lenti-GLDC shRNA-insulted mice; test: Barnes maze, spatial learning and memory in lenti-GLDC shRNA-insulted mice; format: in vivo, C57/BL6 mice; settings: 50 mg/kg body wt/d daily via gavage, after 10 d of treatment; for latency in reaching the target hole: FIG. 2B; for errors in reaching the target hole: FIG. 2C
Experimental: (§3) C57/BL6 mice (8-10 week old) received lentiviral GLDC shRNA (1×107 IFU/mouse in 100 μl HBSS) once via tail-vein injection. Therefore, control mice also received 100 μl HBSS via tail-vein. From 7 d after lenti-GLDC shRNA injection, mice were treated with cinnamein (50 mg/kg body wt/d) and cinnamic acid (50 mg/kg body wt/d) daily via gavage. After 10 d of treatment, spatial learning and memory was monitored by Barnes maze (A, heat map; B, latency; C, errors). Results are mean+SEM of five mice per group. *p<0.05; **p<0.01; ***p<0.001.
as §1
Next, mice were monitored for spatial learning and memory by Barnes maze. Here, mice were trained for two consecutive days followed by examination on day three. During training, the overnight food-deprived mouse was placed in the middle of the maze in a 10 cm high cylindrical start chamber. After 10 s, the start chamber was removed to allow the mouse to move around the maze to find out the color food chips in the baited tunnel.

[4] = system: lenti-GLDC shRNA-insulted mice; test: Level of glycine in serum and cortex of lenti-GLDC shRNA-insulted mice (fluorometric assay kit); format: in vivo, C57/BL6 mice; settings: 50 mg/kg body wt/d daily via gavage, 14 d of treatment; for level of glycine in serum: FIG. 3A; for level of glycine in cortex: FIG. 3B
Experimental: C57/BL6 mice (8-10 week old) received lentiviral GLDC shRNA (1×107 IFU/mouse in 100 μl Hank's Balanced Salt Solution or HBSS) once via tail-vein injection. Therefore, control mice also received 100 μl HBSS via tail-vein. From 7 d after lenti-GLDC shRNA injection, mice were treated with cinnamein (50 mg/kg body wt/d) and cinnamic acid (50 mg/kg body wt/d) daily via gavage. After 14 d of treatment, the level of glycine was measured in serum (A) and cortex (B) by using a fluorometric assay kit (Biovision). Each mouse sample was run in triplicate. Results are mean+SEM of five mice per group. ***p<0.001.
as §1, §2

[5] = system: lenti-GLDC shRNA-insulted mice; test: Open field test of locomotor activities in lenti-GLDC shRNA-insulted mice; format: in vivo, C57/BL6 mice; settings: 50 mg/kg body wt/d daily via gavage, after 10 d of treatment, FIG. 1A-D
Experimental: as §3, with “locomotor activities were” for “spatial learning and memory was”, “open field (FIG. 1A,” for “Barnes maze (A,”, “FIG. 1B, distance traveled; FIG. 1C, velocity; FIG. 1D, center zone frequency).” for “B, latency; C, errors).”
C57/BL6 mice (8-10 week-old) received lentiviral GLDC shRNA (1×107 IFU/mouse in 100 μl Hank's Balanced Salt Solution or HBSS) once via tail-vein injection. The group of control mice received only 100 μl HBSS via tail-vein injection. Oral administration of cinnamein occurred from 7 d after lenti-GLDC shRNA injection. Mice were treated with 50 mg/kg body wt/d of cinnamein daily via gavage. Cinnamein (Sigma) was solubilized in 100 μl 0.5% methyl cellulose before gavage. […]
After 10 d of treatment with cinnamein and cinnamic acid, mice were monitored for locomotor activities by open field test. […] Each mouse was placed individually on the center of the arena and the performance was monitored by the live video tracking system.

Compound	cognitive functions (Barnes maze errors and latency) [1]	side effects including hair loss, weight loss, diarrhea, or untoward infection [2]	latency in reaching the target hole [3]	errors in reaching the target hole [3]	level of glycine in serum [4]	level of glycine in cortex [4]	locomotor activities (heat map, total distance travelled, velocity, center zone frequency) [5]
O=C(C=Cc1ccccc1)OCc1ccccc1 [cinnamein, 3-phenyl-2-propenoic acid phenylmethyl ester]	recovers cognitive functions	No other side effects were observed	significantly reduced	significantly reduced	significantly inhibited	significantly inhibited	improved locomotor activities
O=C(O)C=Cc1ccccc1 [cinnamic acid]	recovers cognitive functions	No other side effects were observed	significantly reduced	significantly reduced	significantly inhibited	significantly inhibited	improved locomotor activities
